Data taken from patent US9926284B2, “Substituted N-(1,2,4-triazol-3-yl)Arylcarboxamide compounds and their use as herbicides” (BASF SE, priority 2013, dated 2018).
Marks after values point to notes of the source that are not given here.

Tests used:
Type in all cases: in vivo
Abutilon theophrasti [1] = experiment: greenhouse pre-emergence treatment, herbicidal activity; conditions: pre-emergence (values labeled *), 1000 g/ha, scale 0 to 100
Source text: (§1) The seeds of the test plants were sown separately for each species. For the pre-emergence treatment, the active ingredients, which had been suspended or emulsified in water, were applied directly after sowing by means of finely distributing nozzles. The containers were irrigated gently to promote germination and growth and subsequently covered with transparent plastic hoods until the plants had rooted. This cover caused uniform germination of the test plants, unless this has been impaired by the active ingredients. Depending on the species, the plants were kept at 10-25° C. or 20-35° C. The test period extended over 2 to 4 weeks. During this time, the plants were tended, and their response to the individual treatments was evaluated. Evaluation was carried out using a scale from 0 to 100. 100 means no emergence of the plants, or complete destruction of at least the aerial moieties, and 0 means no damage, or normal course of growth. A good herbicidal activity is given at values of at least 70 and a very good herbicidal activity is given at values of at least 85. The plants used in the greenhouse experiments belonged to the following species: [table]

Amaranthus retroflexus [2] = experiment: as above; conditions: pre-emergence (values labeled *), 1000 g/ha, scale 0 to 100
Source text: as §1

Echinochloa crus-galli [3] = experiment: as above; conditions: pre-emergence (values labeled *), 1000 g/ha, scale 0 to 100
Source text: as §1

Setaria faberi = experiment: as above; conditions: pre-emergence (values labeled *), 1000 g/ha, scale 0 to 100
Source text: as §1

Abutilon theophrasti [4] = experiment: greenhouse post-emergence treatment, herbicidal activity; conditions: 1000 g/ha, scale 0 to 100
Source text: (§2) The seeds of the test plants were sown separately for each species. For the post-emergence treatment, the test plants were first grown to a height of 3 to 15 cm, depending on the plant habit, and only then treated with the active ingredients which had been suspended or emulsified in water. For this purpose, the test plants were either sown directly and grown in the same containers, or they were first grown separately as seedlings and transplanted into the test containers a few days prior to treatment. Depending on the species, the plants were kept at 10-25° C. or 20-35° C. The test period extended over 2 to 4 weeks. During this time, the plants were tended, and their response to the individual treatments was evaluated. Evaluation was carried out using a scale from 0 to 100. 100 means no emergence of the plants, or complete destruction of at least the aerial moieties, and 0 means no damage, or normal course of growth. A good herbicidal activity is given at values of at least 70 and a very good herbicidal activity is given at values of at least 85. The plants used in the greenhouse experiments belonged to the following species: [table]

Amaranthus retroflexus [5] = experiment: as above; conditions: 1000 g/ha, scale 0 to 100
Source text: as §2

Avena fatua = experiment: as above; conditions: 1000 g/ha, scale 0 to 100
Source text: as §2

Echinochloa crus-galli [6] = experiment: as above; conditions: 1000 g/ha, scale 0 to 100
Source text: as §2

Setaria viridis = experiment: as above; conditions: 1000 g/ha, scale 0 to 100
Source text: as §2

Agrostis spica-venti = experiment: greenhouse pre-emergence treatment, herbicidal activity; conditions: pre-emergence (values labeled *), 1000 g/ha, scale 0 to 100
Source text: as §1

Alopecurus agrestis = experiment: greenhouse post-emergence treatment, herbicidal activity; conditions: 1000 g/ha, scale 0 to 100
Source text: as §2

CCn1cnnc1NC(=O)c1c(F)cc(Cl)c(SC)c1Cl [cpd. 3, 2,4-dichloro-N-(4-ethyl-1,2,4-triazol-3-yl)-6-fluoro-3 methyl-sulfanyl-benzamide]
damage [%] in weed species I (ABUTH) (Abutilon theophrasti [1]): 90% | damage [%] in weed species III (AMARE) (Amaranthus retroflexus [2]): 90% | damage [%] in weed species VI (ECHCG) (Echinochloa crus-galli [3]): 75% | damage [%] in weed species VII (SETFA) (Setaria faberi): 70* % | damage [%] in weed species I (ABUTH) (Abutilon theophrasti [4]): 100% | damage [%] in weed species III (AMARE) (Amaranthus retroflexus [5]): 100% | damage [%] in weed species V (AVEFA) (Avena fatua): 80% | damage [%] in weed species VI (ECHCG) (Echinochloa crus-galli [6]): 98% | damage [%] in weed species VIII (SETVI) (Setaria viridis): 100%

CSc1c(Cl)cc(F)c(C(=O)Nc2nncn2C)c1Cl [cpd. 4, 2,4-dichloro-6-fluoro-3-methylsulfanyl-N-(4-methyl-1,2,4-triazol-3-yl)benzamide]
damage [%] in weed species I (ABUTH) (Abutilon theophrasti [1]): 70% | damage [%] in weed species IV (APESV) (Agrostis spica-venti): 70* % | damage [%] in weed species III (AMARE) (Amaranthus retroflexus [2]): 100, 100* % | damage [%] in weed species VII (SETFA) (Setaria faberi): 70* % | damage [%] in weed species I (ABUTH) (Abutilon theophrasti [4]): 100% | damage [%] in weed species II (ALOMY) (Alopecurus agrestis): 90% | damage [%] in weed species III (AMARE) (Amaranthus retroflexus [5]): 100, 100* % | damage [%] in weed species V (AVEFA) (Avena fatua): 90% | damage [%] in weed species VI (ECHCG) (Echinochloa crus-galli [6]): 95% | damage [%] in weed species VIII (SETVI) (Setaria viridis): 100%

Cn1cnnc1NC(=O)c1c(F)cc(Cl)c(S(C)(=O)=O)c1Cl [cpd. 5, 2,4-dichloro-6-fluoro-3-methylsulfonyl-N-(4-methyl-1,2,4-triazol-3-yl)benzamide]
damage [%] in weed species I (ABUTH) (Abutilon theophrasti [1]): 80% | damage [%] in weed species IV (APESV) (Agrostis spica-venti): 70* % | damage [%] in weed species III (AMARE) (Amaranthus retroflexus [2]): 85% | damage [%] in weed species VI (ECHCG) (Echinochloa crus-galli [3]): 80% | damage [%] in weed species VII (SETFA) (Setaria faberi): 85* % | damage [%] in weed species I (ABUTH) (Abutilon theophrasti [4]): 98% | damage [%] in weed species II (ALOMY) (Alopecurus agrestis): 85% | damage [%] in weed species III (AMARE) (Amaranthus retroflexus [5]): 90% | damage [%] in weed species VI (ECHCG) (Echinochloa crus-galli [6]): 98% | damage [%] in weed species VIII (SETVI) (Setaria viridis): 95%

CCn1cnnc1NC(=O)c1c(F)cc(Cl)c(S(C)(=O)=O)c1Cl [cpd. 2, 2,4-dichloro-N-(4-ethyl-1,2,4-triazol-3-yl)-6-fluoro-3-methyl-sulfonyl-benzamide]
damage [%] in weed species IV (APESV) (Agrostis spica-venti): 80* % | damage [%] in weed species III (AMARE) (Amaranthus retroflexus [2]): 95% | damage [%] in weed species VI (ECHCG) (Echinochloa crus-galli [3]): 98% | damage [%] in weed species VII (SETFA) (Setaria faberi): 85* % | damage [%] in weed species I (ABUTH) (Abutilon theophrasti [4]): 100% | damage [%] in weed species III (AMARE) (Amaranthus retroflexus [5]): 75% | damage [%] in weed species V (AVEFA) (Avena fatua): 75% | damage [%] in weed species VI (ECHCG) (Echinochloa crus-galli [6]): 90% | damage [%] in weed species VIII (SETVI) (Setaria viridis): 100%
